The values that follow come from patent US9000028B2, “Indole and indazole compounds as an inhibitor of cellular necrosis” (LG Life Sciences Ltd., priority 2007, dated 2015).

Like-named read-outs stand apart in the source and are kept apart here. Where only a bound is given, the exact number is not on record here.

The subject of data set [1] is primary hepatocytes isolated from rats. The data set is described as follows: Hepatocyte protective effect against substances deriving hepatocyte toxicity (WST-1 viability). The class given is cell-based. Conditions: for EC50: 24-48 h. In short, it runs like this: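 Hepatocytes from two-step collagenase perfusion (≥90% viable) seeded on collagen, pretreated 30 min with compound (5-step 2- or 3-fold dilutions from 30, 10 or 1 uM; 0.2% DMSO), then exposed to hepatotoxic agents. WST-1 absorbance at 440 nm after 24-48 h; EC50 = concentration giving 50% of maximal protection.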

Data set [2] relates to cardiac cells (H9C2, white rat cardiomyocyte). Briefly: Protective effect when tBHP was treated on cardiac cells (SRB method). The class given is cell-based. Conditions: tBHP 400 uM, 2 h. As to the method: In order to determine the protective effect on pancreatic cells, Linm5F cells, a sort of the beta cells, were distributed into the 96-well plate in the amount of 2×10^4 cells/well, and incubated for 24 h. The Example compounds were serially diluted by 3-fold to the final concentration of 30, 10, 3, 1, 0.3, 0.1 uM, by which each well was treated for 1 h. Cells were treated with tBHP at the final concentration of 400 uM, and further incubated for 5 h. Protective effects were determined using SRB (Sulforhodamine B Protein) method in which total amount of cellular protein is stained. Briefly, cells were incubated for 5 h, 50 uL of 4% formaldehyde solution was added to each well to fix the cells, and stored for about 30 min at room temperature. After discarding the media, each well was washed with distilled water 2-3 times, and the plate was dried in an oven at 50° C. 50 uL of SRB solution was added to each well, and placed for about 30 min at room temperature. After removing SRB solution, the plate was washed with 1% acetic acid solution 2-3 times. After drying the plate in an oven at 50° C., 100 uL of 10 mM Tris was added to elute SRB which was staining the intracellular protein.
In order to assess the protective effect on cardiac cells, H9C2 cells were distributed in the amount of 1.5×10^4 cells/well, and incubated for 24 h. The Example compounds were serially diluted by 3-fold to the final concentration of 30, 10, 3, 1, 0.3, 0.1 uM, by which each well was treated for 45 min. Cells were treated with tBHP at the final concentration of 400 uM, and incubated for 2 h. Protective effect of each compound was determined using the same SRB method as in Linm5F of above mentioned 2).

Setting [3] is: Rattus norvegicus, Hepatocyte, doxorubicin, read-out: EC50, cell protective effects against doxorubicin in hepatocytes.
[4] abbreviates: doxorubicin, rat primary hepatocytes, read-out: EC50, cell protective effects against doxorubicin in hepatocytes.

With `O=S1(=O)CCN(Cc2cc(NCC3CCOCC3)c3[nH]c(-c4ccccc4)c(Br)c3c2)CC1` [Example 74, (Tetrahydropyran-4-ylmethyl)-(3-bromo-5-(1,1-dioxo-thiomorpholin-4-yl)methyl-2-phenyl-1H-indol-7-yl)-amine], the EC50 was 350 nM in data set [1] (setting [3]) and at most 200 nM in data set [2]. For `CS(=O)(=O)N1CCC(Nc2cc(CN3CCS(=O)(=O)CC3)cc3cc(-c4ccccc4)[nH]c23)CC1` [Example 97, (5-(1,1-Dioxo-thiomorpholin-4-yl)methyl-2-phenyl-1H-indol-7-yl)-(1-methanesulfonyl-piperidin-4-yl)-amine], in that order: 90 nM and at most 200 nM. As to `Cc1cc(NC2CCOCC2)c2[nH]c(-c3ccccc3)cc2c1` [Example 41, (Tetrahydropyran-4-yl)-(5-methyl-2-phenyl-1H-indol-7-yl)-amine], the half-maximal effective concentration (EC50) in data set [1] (Rattus norvegicus, Hepatocyte, Actinomycin D 100 ng/mL, read-out: EC50, protective effect against the substances deriving hepatotoxicity) was 170 nM; in data set [1] (Rattus norvegicus, Hepatocyte, Anti-Fas Ab 1 ug/mL / Actinomycin D 5 ng/mL, read-out: EC50, protective effect against the substances deriving hepatotoxicity), below 600 nM; in data set [1] (Rattus norvegicus, Hepatocyte, CCl4 10 mM, read-out: EC50, protective effect against the substances deriving hepatotoxicity) it was 800 nM; in data set [1] (Rattus norvegicus, Hepatocyte, CdCl2 1 uM, read-out: EC50, protective effect against the substances deriving hepatotoxicity) it was 1900 nM; in data set [1] (Rattus norvegicus, Hepatocyte, Cyclophosphamide 3 mM, read-out: EC50, protective effect against the substances deriving hepatotoxicity), below 200 nM; in data set [1] (Rattus norvegicus, Hepatocyte, Doxorubicin 5 uM, read-out: EC50, protective effect against the substances deriving hepatotoxicity) it was 60 nM. Also, the EC50 is 9000 nM in data set [1] (Rattus norvegicus, Hepatocyte, EtOH 2.5%, read-out: EC50, protective effect against the substances deriving hepatotoxicity); 800 nM in data set [1] (Rattus norvegicus, Hepatocyte, H2O2 10 mM, read-out: EC50, protective effect against the substances deriving hepatotoxicity); below 600 nM in data set [1] (Rattus norvegicus, Hepatocyte, Palmitic acid 700 uM, read-out: EC50, protective effect against the substances deriving hepatotoxicity); below 600 nM in data set [1] (Rattus norvegicus, Hepatocyte, Stearic acid 700 uM, read-out: EC50, protective effect against the substances deriving hepatotoxicity); 60 nM in data set [1] (setting [3]). Also, the “viability at 3-100 uM” value in data set [1] (Tacrine 0.5 mM, compound at 3-100 uM, rat primary hepatocytes) is listed as 50%. For `CC(=O)Nc1ccc(-c2cc3cc(N4CCS(=O)(=O)CC4)cc(NC4CCOCC4)c3[nH]2)cc1` [Example 89, (Tetrahydropyran-4-yl)-{5-(1,1-dioxo-thiomorpholin-4-yl)-2-[4-(acetyl)aminophenyl]-1H-indol-7-yl}-amine], the concentration for a half-maximal effect (EC50) in data set [1] (setting [3]) is 300 nM.

On to `Cc1cc(NC2CCCC2)c2[nH]c(-c3cccc(C)n3)cc2c1` [Example 19, Cyclopentyl-[5-methyl-2-(6-methylpyridin-2-yl)-1H-indol-7-yl]-amine], for which the EC50 in data set [1] (setting [3]) was 70 nM. Still for that read-out and setting: in the case of `O=C(Nc1ccccc1)N1CCC(Nc2cc(Cl)cc3cc(-c4ccccc4)[nH]c23)CC1` [Example 94, 4-(5-Chloro-2-phenyl-1H-indol-7-yl)amino-piperidin-1-yl-carboxylic acid phenylamide] it was 80 nM; in that of `O=C(O)Cc1cc(NC2CCCC2)c2[nH]c(-c3ccccc3)cc2c1` [Example 33, 2-[7-(Cyclopentyl)amino-2-phenyl-1H-indol-5-yl]acetic acid], 150 nM; in that of `O=C(O)c1cccc(-c2cc3cc(Cl)cc(NC4CCCC4)c3[nH]2)c1` [Example 124, 3-(7-Cyclopentylamino-5-chloro-1H-indol-2-yl)-benzoic acid], 150 nM. Same read-out and setting: in the case of `Clc1cc(NC2CCCC2)c2[nH]c(-c3ccccc3)c(CN3CCOCC3)c2c1` [Example 67, Cyclopentyl-(5-chloro-3-(morpholin-4-yl)methyl-2-phenyl-1H-indol-7-yl)-amine] it was below 130 nM; in that of `COC(=O)c1ccccc1-c1cc2cc(Cl)cc(NC3CCCC3)c2[nH]1` [Example 135, 2-(5-Chloro-7-cyclopentylamino-1H-indol-2-yl)-benzoic acid methyl ester], 150 nM; in that of `O=C(O)Cc1cc(NC2CCOCC2)c2[nH]c(-c3ccccc3)cc2c1` [Example 34, 2-[2-Phenyl-7-(tetrahydropyran-4-yl)amino-1H-indol-5-yl]-acetic acid], above 2000 nM.

Turning to `CNC(=O)C1CCC(Nc2cc(Cl)cc3cc(-c4ccccc4)[nH]c23)CC1` (stereo not drawn) [Example 105, 4-(5-Chloro-2-phenyl-1H-indol-7-yl)amino-cyclohexanecarboxylic acid methylamide], the EC50 in data set [1] (setting [3]) is 70 nM. Same read-out and setting: in the case of `O=C1CCC(Nc2cc(Cl)cc3cc(-c4ccccc4)[nH]c23)CC1` [Example 21, 4-[(5-Chloro-2-phenyl-1H-indol-7-yl)amino]-cyclohexan-1-one] it was 40 nM; in that of `COC(=O)c1ccc(-c2cc3cc(Cl)cc(NC4CCCC4)c3[nH]2)cc1` [Example 142, 4-(5-Chloro-7-cyclopentylamino-1H-indol-2-yl)benzoic acid methyl ester], 50 nM. Regarding `O=C1CN(Cc2c(-c3ccccc3)[nH]c3c(NC4CCCC4)cc(Cl)cc23)CCN1` [Example 70, Cyclopentyl-(5-chloro-3-(2-oxo-piperazin-4-yl)methyl-2-phenyl-1H-indol-7-yl)-amine], in data set [1] (setting [3]), the EC50 worked out at 256 nM. Same read-out and setting: with `c1ccc(Oc2cc(NC3CCOCC3)c3[nH]c(-c4ccccc4)cc3c2)cc1` [Example 62, (Tetrahydropyran-4-yl)-(5-phenoxy-2-phenyl-1H-indol-7-yl)-amine] the figure was 110 nM; with `O=C(O)C[C@@H]1CSC(c2cc(NCC3CCOCC3)c3[nH]c(-c4ccccc4)cc3c2)=N1` [Example 122, 2-[(R)-2-(2-phenyl-7-(tetrahydropyran-4-yl)methylamino-1H-indol-5-yl)-4,5-dihydro-thiazol-4-yl]-acetic acid], 200 nM; with `OCc1ccccc1-c1cc2cc(Cl)cc(NC3CCCC3)c2[nH]1` [Example 133, [2-(5-Chloro-7-cyclopentylamino-1H-indol-2-yl)-phenyl]-methanol], 150 nM. For the compound `Cc1cc(N(C)C2CCCC2)c2[nH]c(-c3ccccn3)cc2c1` [Example 27, Cyclopentyl-methyl-[5-methyl-2-(pyridin-2-yl)-1H-indol-7-yl]-amine], in data set [1] (setting [3]), the EC50 came out at 2400 nM. On the same count and under the same terms, in the case of `Clc1cc(NC2CCOCC2)c2[nH]c(-c3cccc(CN4CCOCC4)c3)cc2c1` [Example 148, [5-Chloro-2-(3-morpholin-4-ylmethylphenyl)-1H-indol-7-yl]-(tetrahydropyran-4-yl)-amine] it was 160 nM; in that of `CC(Nc1cc(Cl)cc2cc(-c3ccccc3)[nH]c12)C(=O)O` (stereo not drawn) [Example 112, 2-(5-Chloro-2-phenyl-1H-indol-7-yl)amino-propionic acid], 450 nM. Same read-out and setting: with `c1cc(NC2CCCC2)c2[nH]c(-c3cnccn3)cc2c1` [Example 5, Cyclopentyl-[2-(pyrazin-2-yl)-1H-indol-7-yl]-amine] the figure was 500 nM. For the compound `O=C(O)Cc1cccc(-c2cc3cc(Cl)cc(NC4CCCC4)c3[nH]2)c1` [Example 128, 2-[3-(5-Chloro-7-cyclopentylamino-1-H-indol-2-yl)-phenyl]-acetic acid], in data set [1] (setting [4]), the EC50 was found to be 170 nM. Turning to `O=C1CN(CCc2cccc(-c3cc4cc(Cl)cc(NC5CCOCC5)c4[nH]3)c2)CCN1` [Example 151, {5-Chloro-2-[3-(2-oxo-piperazin-4-yl)ethylphenyl]-1H-indol-7-yl}-(tetrahydropyran-4-yl)-amine], the 50% effective concentration (EC50) in data set [1] (setting [3]) was above 2000 nM. Still for that read-out and setting: in the case of `O=C(O)c1cc(NC2CCCC2)c2[nH]c(-c3ccccc3)cc2c1` [Example 30, 7-(Cyclopentyl)amino-2-phenyl-1H-indole-5-carboxylic acid] it was 140 nM. Take `COC(=O)Cc1cccc(-c2cc3cc(Cl)cc(NC4CCOCC4)c3[nH]2)c1` [Example 132]: in data set [1] (setting [4]), the half-maximal effective concentration (EC50) was 430 nM. Regarding `CN1CCC(Nc2cc(Cl)cc3cc(-c4ccccc4)[nH]c23)CC1` [Example 52, (1-Methylpiperidin-4-yl)-(5-chloro-2-phenyl-1H-indol-7-yl)-amine], the EC50 in data set [1] (setting [3]) turned out to be 140 nM. On the same count and under the same terms, with `OCC(CO)Nc1cc(Cl)cc2cc(-c3ccccc3)[nH]c12` [Example 54, 2-[(5-Chloro-2-phenyl-1H-indol-7-yl)amino]propan-1,3-diol] the figure was 220 nM; with `CN(C)CC(=O)N1CCC(Nc2cc(Cl)cc3cc(-c4ccccc4)[nH]c23)CC1` [Example 95, 1-[4-(5-Chloro-2-phenyl-1H-indol-7-yl)amino-piperidin-1-yl]-2-dimethylamino-ethanone], 210 nM.
